The target of this test is T1, RORγ (Homo sapiens, UniProt P51449).
T1 construct: the cells were transfected with an expression vector for full-length RORγ; expressed in transfected cells; host or cells: 3T3L1 (mouse pre-adipocyte) cells, pcDNA3 expression vector, CMV promoter
T1 sequence (P51449 1-518): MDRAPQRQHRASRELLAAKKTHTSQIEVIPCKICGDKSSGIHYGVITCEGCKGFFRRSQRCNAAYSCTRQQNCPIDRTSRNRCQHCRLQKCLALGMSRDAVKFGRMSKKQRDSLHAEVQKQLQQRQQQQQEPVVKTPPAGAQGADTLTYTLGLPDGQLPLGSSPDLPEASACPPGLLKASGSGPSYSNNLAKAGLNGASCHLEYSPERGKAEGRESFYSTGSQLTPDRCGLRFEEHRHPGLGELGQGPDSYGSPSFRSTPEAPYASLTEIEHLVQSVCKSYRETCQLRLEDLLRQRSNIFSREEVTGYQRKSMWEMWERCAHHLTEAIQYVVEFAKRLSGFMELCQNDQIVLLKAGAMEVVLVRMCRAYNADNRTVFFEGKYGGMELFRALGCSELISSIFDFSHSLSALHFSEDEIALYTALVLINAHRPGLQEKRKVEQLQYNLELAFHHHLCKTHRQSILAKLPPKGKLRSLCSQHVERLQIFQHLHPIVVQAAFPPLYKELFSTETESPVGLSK
Kind of test: Luciferase transfection assay: repression of RORγ transcriptional activity (MMP3 promoter reporter, dual luciferase). As to conditions: 10 μM added to growth medium of transfected 3T3L1 cells; firefly/renilla luciferase ratio 48 h after transfection; average, n at least 6. It is filed as cell-based. The procedure: Adipocyte-like 3T3L1 cells grown to 60-70% confluence in 24 well dishes were used for the assay. The cells were transfected with the reporter gene (pMMP3-pGL3) or the respective empty pGL3 vector as control at a concentration of 0.1 μg/well. The pMMP3-pGL3 reporter expresses the luciferase gene under the control of the promoter of the RORγ target gene matrix metalloproteinase 3 (MMP3). In addition the cells were transfected with an expression vector for full-length RORγ or the respective empty pcDNA3 control vector at 0.1 ug/well. The pCMV-Renilla plasmid served as internal control to normalize for transfection efficacy at a concentration of 0.05 μg/well. All plasmids were transfected at the same time into the cell using the transfection reagent Fugene according to the manufacture's protocol (Promega). […] Firefly as well as renilla luciferase activity was measured 48 h after transfection using the Dual Luciferase Detection System (Promega) following the instructions provided by the manufacturer.
Compounds 13a, 13b and 14a were tested for their ability to inhibit gene transcription induced by the orphan nuclear receptor RORγ using a dual luciferase assay. […] This system allows to determine if a substance of interest is actively repressing the transcriptional activity of RORγ by using reduced luciferase activity as a read-out (FIG. 2).
For the actual experiment 60-70% confluent 3T3L1 pre-adipocytes were transfected with the MMP3 reporter, RORγ and the normalization vector expressing renilla luciferase. […] 48 h after introducing the plasmids, the cells were harvested, lysed and the activity of firefly as well as renilla luciferase measured in each well. The efficacy of a substance to repress RORγ activity was calculated from the ratio of firefly over renilla luciferase activity and normalization to the control wells and the DMSO treated wells. […]

The text below walks through data of patent US20160287609A1, “ROR GAMMA MODULATORS” (ETH ZÜRICH, priority 2013, published 2016).

For the compound `C[C@H](C[C@@H](O)C(=O)NCCS(=O)(=O)O)C1C[C@H](O)[C@H]2C3C(CC[C@]12C)[C@@]1(C)CC[C@@H](O)C[C@H]1C[C@H]3O` (stereo in doubt) [Compound 14a, 3α,7β,15α,(23R)-tetrahydroxy-5β-24-oxocholanyl-amino ethansulfonic acid], the “transcriptional activity of RORγ, as % of the intensity measured in the presence of DMSO” value (“transcriptional activity of RORγ, as % … of DMSO” below) was 56%.

For the compound `C[C@H](C[C@@H](O)C(=O)O)C1C[C@H](O)[C@H]2C3C(CC[C@]12C)[C@@]1(C)CC[C@@H](O)C[C@H]1C[C@H]3O` (stereo partly drawn) [Compound 13a, 3α,7α,15α,(23R)-tetrahydroxy-5β-cholanoic acid], the “transcriptional activity of RORγ, as % … of DMSO” value is given as 52%.

Turning to `C[C@H](C[C@H](O)C(=O)O)C1C[C@H](O)[C@H]2C3C(CC[C@]12C)[C@@]1(C)CC[C@@H](O)C[C@H]1C[C@H]3O` (stereo partly drawn) [Compound 13b, 3α,7α, 15α,(23S)-tetrahydroxy-5β-cholanoic acid], the “transcriptional activity of RORγ, as % … of DMSO” value turned out to be 57%.
